Reference: article PMC4106781, “Efficacy of Selective PDE4D Negative Allosteric Modulators in the Object Retrieval Task in Female Cynomolgus Monkeys (Macaca fascicularis)” (PLoS ONE, 2014)

Columns and labels:
[1] = system: female Cynomolgus monkeys; experiment: Clinical observations (retching, emesis, salivation) during OR and PK studies; assay type: in vivo, Cynomolgus macaques (Macaca fascicularis); settings: 0.03 mg/kg IM; one animal (5B09), 20 minutes post dose
Protocol: • Week 1: Animals were habituated to intramuscular injections daily using the ‘rolipram’ vehicle formulation (10% solutol (w/v), 90% saline vehicle in a 0.1 mL/Kg dose volume) Monday through Friday, and a single baseline OR trial evaluation was performed on Wednesday (OR4) (Figure 2A). Animals were dosed with vehicle 30 minutes prior to this behavioural evaluation. • Weeks 2 to 5: Evaluation of rolipram in OR task. Following the stable baseline performance establishment (OR1 – 4), all animals were administered the 3 doses of rolipram (0.003, 0.01 and 0.03 mg/Kg) or vehicle intramuscularly 30 minutes before evaluation on the OR task, every Wednesday through Weeks 2–5 (OR5-8). All animals were dosed with vehicle on the preceding Monday and Tuesday to keep them habituated to the injections and avoid any Pavlovian conditioning to any pro-emetic effects of treatment, although no OR testing was carried out on those days. Treatment was administered at approximately the same time each day and administered via the intramuscular route at a volume of 0.1 mL/kg. […]
Animals were closely monitored for the duration of the study, and were videotaped during task performance. Body weights were monitored weekly. Clinical observations were recorded prior to dose administration and after the completion of each OR task. […]

[2] = system: female Cynomolgus monkeys; experiment: Object retrieval (OR) detour task; assay type: in vivo, Cynomolgus macaques (Macaca fascicularis)
From the text: A total of n = 8 female Cynomolgus monkeys aged 4–6 years were trained in the OR task and were used for these studies, following a cross-over design. Animals were trained to ensure adequate and stable performance during the dosing studies. Animals were individually housed prior to the initiation of the study. Animals were habituated to the oral gavage method using positive reinforcement techniques for a minimum of 2 weeks prior to the initiation of OR testing to mitigate any adverse impact on behaviour. To ensure accurate dosing each individual was momentarily restrained in a ‘standing’ type primate chair to allow easy and gentle passage of the gavage tube. The oral doses were administered in a dose volume of 1.0 mL/Kg which was followed with 5 mL of purified water to ensure no residual compound formulation remained in the gavage tube. During dose habituation and the study the same study personnel administered the compounds and thus a non-stressful, familiar routine for the animals was achieved.
The OR task, [55] requires the subject to retrieve a food reward from a clear acrylic box (dimensions = 5×5×5 cm) with one open side which is positioned in front of the subject on a metal holder fixed to the outside of the home cage. The cube is presented to the subject with the open side facing left, right, or toward the monkey in a randomised set list of easy versus difficult trials. Food rewards (raisins or cubes of fruit pieces 1–2 cm^2) were placed on the outer edge, inner edge, line of sight (all easy), or deep within the box (difficult). Each test session consisted of 17 trials, with an initial Easy phase of 3 easy trials followed by a Random phase of 9 trials (4 difficult and 5 easy, presented randomly for each session), followed by a Difficult phase of 4 difficult trials and finally one final Easy Trial (Figure 2A). The final easy trial was included for reward purposes and although the number of attempts was recorded the data were not used for analysis. For successive test sessions, the subject was presented with the trials in an order exactly the reverse of the previous session (previous left side exposure became right side exposure and vice-versa). Individual trials within one OR session were terminated if there were no reaches or successful retrieval of the reward within 2 minutes by the subject. The acrylic box was cleaned between trials to minimize cues which may influence subsequent task performance through easier identification of the cube entrance.
Animals were habituated to the metal frame prior to introducing the OR cube. During training, the animals were exposed to the OR trials as depicted in Figure 2A for 4 occasions (twice a week- OR trial # T1-T4 – data not shown). Importantly, during this period of training, all animals acquired the rewards even after an incorrect first reach. OR evaluations were then subsequently conducted once per week to discourage learning and thus ensure no performance shift during the pharmacology study (Figure 2B). […]
Baseline performance was targeted to be an average, stable performance of >50% correct responses in the easy tasks, with less than 40% correct responses in the difficult tasks (Figure 2B). All animals evaluated during this phase met these criteria by the end of the training session, with the exception of one animal, which was a baseline ‘high performer’ on difficult trials (Animal 3939). […]

[3] = system: NHPs; settings: cited from earlier work
[4] = repeat measures ANOVA, dose group as factor

With `COc1ccc(C2CNC(=O)C2)cc1OC1CCCC1` (stereo not drawn) [rolipram, Rolipram] the adverse reactions [1] was “Retching and severe salivation”, the “mean percent correct first reaches, difficult trials (effect vs vehicle)” value ([2]; 0.01 mg/kg IM) was “significance was not observed” and the “mean percent correct first reaches, difficult trials” value ([2]; 0.03 mg/Kg IM, 30 min before OR, mean ± SEM, vehicle 22±8%) was 42±8%. The “mean percent correct first reach, easy level trials (effect of dosing)” value [2, 4] was “No significant improvement”, the “number of barrier reaches, difficult trials (effect of dosing)” value [2, 4] was “No significant change” and the “total number of reaches, difficult trials (effect of dosing)” value [2, 4] was “No significant change”. For the same compound, the retching ([3]; 0.05 mg/kg IM, separate study, ref Maccine, personal communication) was “all animals retching”, the emesis ([3]; 0.06 mg/kg) was “emesis” and the “emesis (monkeys affected)” value ([3]; 0.1 mg/kg) was 12 of 14.
